Results from patent US11400079B2, “Antibacterial monobactams” (University of Notre Dame du Lac, priority 2017, dated 2022).
≈ marks a conversion by molar mass, not a printed value. Where a name gives a salt, the structure may show the parent alone. Read-outs that look alike come from different tables or passages of the source.

Assays:
[1] = tested on: A.baumannii ISR14-005; test: MIC antibacterial assay (iron depleted media); assay type: cell-based, Acinetobacter baumannii; conditions: A. baumannii ISR14-005 (clinical isolate)
Description: (§1) General Methods. All solvents and reagents were obtained from commercial sources and used without further purification unless otherwise stated. General methods of purification of compounds involved the use column chromatography with silica gel (230-400 mesh) purchased from Silicycle, Quebec City, Canada. The reactions were monitored by TLC on precoated Merck 60 F254 silica gel plates and visualized using UV light (254 nm).
(§2) Antibacterial assays were performed using iron depleted media as described previously (J. Med. Chem. 2017, 60, 4577).

[2] = tested on: E. coli DCO; test: MIC antibacterial assay (iron depleted media); assay type: cell-based; conditions: Escherichia coli; E. coli DCO; MH2 broth with 160 μM bipyridyl added; read-out: MIC
Description: as §1, §2

[3] = tested on: P. aeruginosa KW799/wt; test: MIC antibacterial assay (iron depleted media); assay type: cell-based; conditions: Pseudomonas aeruginosa; P. aeruginosa KW799/wt; MH2 broth with 160 μM bipyridyl added; read-out: MIC
Description: as §1, §2

[4] = tested on: A. baumannii ATCC 17961; test: MIC antibacterial assay (iron depleted media); assay type: cell-based; conditions: Acinetobacter baumannii, ATCC17961; A. baumannii ATCC 17961; MH2 broth with 160 μM bipyridyl added; read-out: MIC
Description: as §1, §2

[5] = tested on: Proteus mirabilis X235; test: MIC antibacterial assay (iron depleted media); assay type: cell-based; conditions: Proteus mirabilis X235; MH2 broth with 160 μM bipyridyl added; read-out: MIC
Description: as §1, §2

[6] = tested on: Salmonella typhimurium ATCC13311; test: MIC antibacterial assay (iron depleted media); assay type: cell-based; conditions: Salmonella enterica; Salmonella typhimurium ATCC13311; MH2 broth with 160 μM bipyridyl added; read-out: MIC
Description: as §1, §2

[7] = tested on: P. aeruginosa 01; test: MIC antibacterial assay (iron depleted media); assay type: cell-based; conditions: Pseudomonas aeruginosa; P. aeruginosa 01; MH2 broth with 160 μM bipyridyl added; read-out: MIC
Description: as §1, §2

[8] = tested on: A. baumannii ATCC17978-PNT-165; test: MIC antibacterial assay (iron depleted media); assay type: cell-based; conditions: Acinetobacter baumannii
Description: as §1, §2

[9] = tested on: P. aeruginosa ISR-14-004; test: MIC antibacterial assay (iron depleted media); assay type: cell-based; conditions: P. aeruginosa ISR-14-004 (clinical isolate)
Description: as §1, §2

[10] = tested on: Citrobacter freuendii ATCC 29063; test: MIC antibacterial assay (iron depleted media); assay type: cell-based; conditions: ATCC29063; Citrobacter freuendii ATCC 29063; MH2 broth with 160 μM bipyridyl added; read-out: MIC
Description: as §1, §2

[11] = tested on: P. aeruginosa ISR-14-003; test: MIC antibacterial assay (iron depleted media); assay type: cell-based; conditions: P. aeruginosa ISR-14-003 (clinical isolate)
Description: as §1, §2

[12] = tested on: P. aeruginosa ARC 3506; test: MIC antibacterial assay (iron depleted media); assay type: cell-based; conditions: Pseudomonas aeruginosa, ARC3506; P. aeruginosa ARC 3506; compound alone; MH2 broth with 160 μM bipyridyl added; read-out: MIC
Description: as §1, §2

[13] = tested on: S. aureus SG 511; test: MIC antibacterial assay (iron depleted media); assay type: cell-based; conditions: Staphylococcus aureus, SG511; S. aureus SG 511; MH2 broth with 160 μM bipyridyl added; read-out: MIC
Description: as §1, §2

[14] = tested on: A. baumannii ATCC BAA 1797; test: MIC antibacterial assay (iron depleted media); assay type: cell-based; conditions: Acinetobacter baumannii, BAA1797; A. baumannii ATCC BAA 1797; MH2 broth with 160 μM bipyridyl added; read-out: MIC
Description: as §1, §2

[15] = tested on: Enterobacter aerogenes X816; test: MIC antibacterial assay (iron depleted media); assay type: cell-based; conditions: Klebsiella aerogenes; Enterobacter aerogenes X816; MH2 broth with 160 μM bipyridyl added; read-out: MIC
Description: as §1, §2

[16] = tested on: P. aeruginosa ARC 3502; test: MIC antibacterial assay (iron depleted media); assay type: cell-based; conditions: Pseudomonas aeruginosa, ARC3502, compound alone, MH2 broth with 160 μM bipyridyl added, read-out: MIC
Description: as §1, §2

[17] = tested on: Gram-negative bacteria; test: Antibacterial activity against tested Gram-negative strains (summary in words); assay type: cell-based; conditions: tested strains of Gram-negative bacteria
Description: as §1, §2

[18] = tested on: A. baumannii ATCC 17978-PNT-320; test: MIC antibacterial assay (iron depleted media); assay type: cell-based, Acinetobacter baumannii
Description: as §1, §2

[19] = tested on: A. baumannii ARC 5079; test: MIC antibacterial assay (iron depleted media); assay type: cell-based, Acinetobacter baumannii; conditions: A. baumannii ARC 5079, compound alone, MH2 broth with 160 μM bipyridyl added
Description: as §1, §2

[20] = tested on: A. baumannii ATCC BAA 1793; test: MIC antibacterial assay (iron depleted media); assay type: cell-based, Acinetobacter baumannii; conditions: A. baumannii ATCC BAA 1793; MH2 broth with 160 μM bipyridyl added
Description: as §1, §2

[21] = tested on: panel of Gram-negative and Gram-positive bacteria; test: Antibacterial activity against a panel of bacteria; assay type: cell-based
Description: as §1, §2

[22] = tested on: B. dolosa AU0018; test: MIC antibacterial assay (iron depleted media); assay type: cell-based; conditions: Burkholderia dolosa; B. dolosa AU0018; MH2 broth with 160 μM bipyridyl added; read-out: MIC
Description: as §1, §2

[23] = tested on: strong β-lactamase producing strains of P. aeruginosa (ARC 3502 and ARC 3506); test: Antibacterial activity, alone and in combination with tazobactam; assay type: cell-based; conditions: co-administration with tazobactam
Description: as §1, §2

[24] = Acinetobacter baumannii, ISR14005, compound alone, MH2 broth with 160 μM bipyridyl added, read-out: MIC
[25] = Pseudomonas aeruginosa, ISR14004, compound alone, MH2 broth with 160 μM bipyridyl added, read-out: MIC
[26] = Pseudomonas aeruginosa, ISR14003, compound alone, MH2 broth with 160 μM bipyridyl added, read-out: MIC
[27] = compound alone, MH2 broth with 160 μM bipyridyl added, read-out: MIC

| Compound | MIC [1, 24] | MIC [2] | MIC [3] | MIC [5] | MIC [6] | MIC [7] | MIC [8] | MIC [9, 25] | MIC [10] | MIC [11, 26] | MIC [13] | MIC [15] | antibacterial activity (in words) [17] | other results |
| --- | --- | --- | --- | --- | --- | --- | --- | --- | --- | --- | --- | --- | --- | --- |
| CO/N=C(\C(=O)NC1C(=O)N(S(=O)(=O)O)[C@H]1CSCCN)c1cnc(N)s1 (stereo partly drawn) [Compound 35, (E)-3-(2-(2-aminothiazol-5-yl)-2-(methoxyimino)acetamido)-2-(((2-ammonioethyl)thio)methyl)-4-oxoazetidine-1-sulfonate, potassium salt] | > 50 µM | 25 µM | > 50 µM | 12.5 µM | 12.5 µM | > 50 µM | 50 µM | > 50 µM | 12.5 µM | > 50 µM | > 50 µM | 0.2 µM | moderately active | MIC [4]: 50 µM; MIC [12]: > 50 µM; MIC [14]: > 50 µM; MIC [16]: > 50 µM |
| Polymixin B [reference compound] | – | – | – | – | – | – | – | – | – | – | – | – | excellent activity | MIC [1, 27]: <0.025 µM; MIC ([18]; A. baumannii ATCC 17978-PNT-320 (cephalosporinase producing organism), MH2 broth with 160 μM bipyridyl added): <0.025 µM; MIC [19]: <0.025 to 0.1 µM; MIC [20]: <0.025 µM; MIC [9, 27]: 0.05 µM; MIC [11, 27]: 0.1 µM |
| COC(=O)CSCC1C(NC(=O)Cc2ccccc2)C(=O)N1S(=O)(=O)[O-].[K+] (stereo not drawn) [Compound 24, Potassium 2-(((2-methoxy-2-oxoethyl)thio)methyl)-4-oxo-3-(2-phenylacetamido) azetidine-1-sulfonate] | – | – | – | – | – | – | – | – | – | – | – | – | – | antibacterial activity (in words) ([21]; panel of Gram-negative and Gram-positive bacteria): not active; antibacterial activity (MIC) ([21]; tested strains): > 50 µM |
| C[C@H]1[C@H](NC(=O)/C(=N\OC(C)(C)C(=O)O)c2csc(N)n2)C(=O)N1S(=O)(=O)O [Aztreonam, aztreonam, reference compound] | > 50 µM | 0.1 µM (≈ 0.0435 µg/mL) | 1.6 µM (≈ 0.697 µg/mL) | 0.05 µM (≈ 0.0218 µg/mL) | 0.1 µM (≈ 0.0435 µg/mL) | 3 µM (≈ 1.31 µg/mL) | 12.5 µM (≈ 5.44 µg/mL) | 50 µM (≈ 21.8 µg/mL) | 0.1 µM (≈ 0.0435 µg/mL) | 6 µM (≈ 2.61 µg/mL) | > 50 µM | 0.2 µM (≈ 0.0871 µg/mL) | – | MIC ([1]; Acinetobacter baumannii, ISR14005, in combination with tazobactam, read-out: MIC (+tazo)): 50 µM; MIC ([18]; Acinetobacter baumannii, ATCC17978): 50 µM (≈ 21.8 µg/mL); MIC ([19]; Acinetobacter baumannii, ARC5079, read-out: MIC): 25 to 50 µM (≈ 10.9 to 21.8 µg/mL); MIC ([9]; Pseudomonas aeruginosa, ISR14004, in combination with tazobactam, read-out: MIC (+tazo)): 0.4 µM; MIC ([11]; Pseudomonas aeruginosa, ISR14003, in combination with tazobactam, read-out: MIC (+tazo)): 3 µM; MIC [22]: > 50 µM; effect of combination with tazobactam on activity (in words) [23]: minimal effects |
